{"source": "ChEMBL document CHEMBL1240302", "about": "“Small-molecule interaction with a five-guanine-tract G-quadruplex structure from the human MYC promoter” (Nat Chem Biol, 2005)", "note": "Calls of active or inactive are those of the source. No cut-off for these calls is given here."}
{"system": "Nucleic Acid", "assay": "Binding affinity to human c-MYC Pu24I G-quadruplex structure assessed as stabilization of G-quadruplex by NMR spectroscopy", "assay_type": "nucleic-acid assay"}
{"compound": "COc1cccc2c1C(=O)c1c(O)c3c(c(O)c1C2=O)C[C@@](O)(C(C)=O)C[C@@H]3O[C@H]1C[C@H](N)[C@H](O)[C@H](C)O1", "Activity": "Active"}
{"compound": "C[n+]1ccc(-c2c3nc(c(-c4cc[n+](C)cc4)c4ccc([nH]4)c(-c4cc[n+](C)cc4)c4ccc([nH]4)c(-c4cc[n+](C)cc4)c4nc2C=C4)C=C3)cc1", "Activity": "Active"}
{"compound": "CC[n+]1c(-c2ccccc2)c2cc(N)ccc2c2ccc(N)cc21", "Activity": "Active"}
{"compound": "CN1CCN(c2ccc3[nH]c(-c4ccc5[nH]c(-c6ccc(O)cc6)nc5c4)nc3c2)CC1", "Activity": "Active"}
